# Measured values from patent publication US20180235870A1, “TRANSDERMAL FORMULATIONS FOR DELIVERY OF BERBERINE COMPOUNDS, AND THEIR USE IN THE TREATMENT OF BERBERINE-RESPONSIVE DISEASES AND CONDITIONS” (DELIVRA INC., priority 2015, published 2018).
# Where two headings read alike, the source gives them in different places.
# Key:
# physchem = assay type: physicochemical
# Protocol: The berberine partition coefficient procedure was used to assess the properties of berberine, which was determined to be an overall hydrophilic molecule. […] The solution was shaken by hand for 30 seconds and allowed to stand for 5 minutes. […] The solution was mixed for one hour using a rotating tube inverter (VWR, 13916-822). A blank sample containing water and octanol (0.7 mL of each) was prepared. […] The sample was monitored using UV/V is at wavelengths 230/600 nm and 280/600 nm. Autosampler temperature was maintained at 24° C. and column was at 30° C. The two layers of the sample were injected by adjusting the injection needle height. 0 mm was used for the water layer and +11 mm was used for the octanol layer. The retention time for berberine elution is 1.4 minutes and peak areas were assigned using the onboard Agilent software based upon absorbance at 230 nm. A HPLC-UV chromatogram was recorded for each layer of the partition according the procedure described above. The area under the peak between 1.2-2.2 minutes in the chromatogram was used as a measure of concentration of berberine. A linear relationship was assumed to exist between absorbance and concentration of berberine at the concentrations evaluated. […] The area-blank (cps) was used directly in the equation below.
# [1] = test system: PCSK9 expression in HEPG2 cells; experiment: Berberine signaling in HEPG2: PCSK9 western blot of supernatant; assay type: cell-based, human; details: 24 hours; for expression of PCSK9 in supernatant (western blot): 25 to 3.125 ug/ml, versus negative control
# Protocol: HEPG2 cells were cultured in 24 well plates to confluence in DMEM supplemented with 10% FBS. After reaching confluence, cells were incubated overnight with 0.1% FBS OPTIMEM for serum starvation. After serum starvation the cells were incubated with berberine, DHB, or THB in 0.1% FBS OPTIMEM using the following dose course: 25 ug/ml, 12.5 ug/ml 6.25 ug/ml 3.125 ug/ml for 24 hours. Supernatant was collected after stimulation and western blotted as follows:
# (1) Resolved on 12.5% gel.
# (3) Blocked with 3% BSA TBST (4) Rabbit anti PCSK9 (Cayman chemicals cat 10007185) at 1/600 in TTBS (5) Wash 3×5 min with TTBS (6) HRP-Goat anti-Rabbit 1/1000 (Cayman chemicals) (7) Wash 3×5 min with TTBS (8) Detection with ECL
# Proprotein convertase subtilisin/kexin type 9 (PCSK9) post-transcriptionally downregulates the low-density lipoprotein receptor (LDLR) by binding to the receptor's epidermal growth factor repeat A on the cell surface and shuttling the LDLR to the lysosomes for degradation. […] Previous reports indicate that berberine has lipid lowering effects in both animal models and human trials (Arrigo F. G., Cicero, L., Rovati C. et al., 2007). The signalling effects of berberine, DHB, and THB were evaluated using the human liver cell line HEPG2. PCSK9, an enzyme that acts in cholesterol homeostasis, is expressed in HEPG2 cells and these cells have previously been used as a model of dyslipidemia. PCSK9 binds to LDL receptor causing uptake of LDL and the LDL receptor and targets both molecules for degradation upon internalization. In the absence of PCSK9, LDL and LDL receptor are still internalized, however, LDL receptor is not degraded but instead recycled to the cell surface resulting in more efficient uptake of circulating LDL.
# [2] = Plasma concentrations of berberine, berberine glucuronide, simvastatin and simvastatin hydroxy acid in rats (Example 20); assay type: in vivo; details: rats (n=2); oral 180 mg/kg/dose or transdermal 3.6 g/kg/dose
# male Zucker rats (fa/fa) = experiment: Efficacy of administration routes and dihydroberberine in a model of metabolic syndrome (Example 22); assay type: in vivo; details: BID
# Protocol: This study examined the efficacy of administration of a derivative of berberine (dihydroberberine) in transdermal formulations in 24 male Zucker rats (fa/fa), similar to the study protocol in Example 19. The following formulations were prepared: […] Animals were maintained without treatment until ten weeks of age at which time groups were randomized by weight and blood glucose. Animal weights were recorded daily and expressed here as percent change from Day zero.
# [3] = Solubility testing of berberine and dihydroberberine using various solvents; assay type: physicochemical
# Protocol: Solubility was determined in a step-wise procedure that involved attempting to dissolve the berberine/DHB in the solvents at relatively high concentrations. […] Then the expected solvent was added to the berberine/DHB. The container was sonicated at RT or at 40C for 30 minutes. The following solvents were tested to dissolve the DHB. Dimethyl sulfoxide (Reagent Grade; […] Lot #STB[…]), and Glycerol tributyrate (Sigma T8626; Lot #BCBQ […]). […] The solubility was visually checked and state of solubility was recorded.
# [4] = uptake inhibited by P-gp-mediated efflux; cited from earlier work
# [5] = humans; cited from earlier work
# [6] = cited from earlier work
# [7] = Glycerol tributyrate, sonication 40 C.
# [8] = Glycerol tributyrate, sonication RT
# [9] = Isopropyl myristate, sonication 40 C.
# [10] = Isopropyl myristate, sonication RT
# [11] = Isosorbid-dimethyl ether 98%, sonication RT
# [12] = Oleyl alcohol, sonication 40 C.
# [13] = first four weeks of treatment, 0.5 g t.i.d.
smiles,measurement,setting,value
"COc1ccc2cc3[n+](cc2c1OC)CCc1cc2c(cc1-3)OCO2 [berberine, Berberine]",berberine in the lipophilic octanol solvent,physchem,~3%
same,logD,physchem,-0.63
same,Octanol area (cps) 230 nm,physchem; Partition,1763 cps
same,Water area (cps) 230 nm,physchem; Partition,34696 cps
same,Octanol area (cps) 230 nm,physchem; Partition minus blank,807 cps
same,Water area (cps) 230 nm,physchem; Partition minus blank,34342 cps
same,berberine remaining within the water layer,physchem; octanol/water,97%
same,concentration down to which expression of PCSK9 was reduced,[1],6.25 µg/mL
same,expression of PCSK9 in supernatant (western blot),[1],reduce the expression of PCSK9
same,expression of PCSK9 in supernatant (western blot),[1]; listed as Berberine,down-regulate the expression of PCSK9
same,berberine plasma concentration,[2],0.44 ng/mL
same,cholesterol levels on Day 14 (mmol/L+/−SEM),male Zucker rats (fa/fa),8.3 ± 0.7 mmol/L
same,rate of weight gain (grams/day),male Zucker rats (fa/fa),1.7 grams/day
same,triglyceride levels on Day 14 (mmol/L+/−SEM),male Zucker rats (fa/fa),14.8 ± 3.0 mmol/L
same,Dissolving Capability,"[3]; Ethanol, sonication 40 C.",40 mg/mL
same,State of Solubility,"[3]; Ethanol, sonication 40 C.",Suspension
same,Dissolving Capability,"[3]; Ethanol, sonication RT",25 mg/mL
same,State of Solubility,"[3]; Ethanol, sonication RT",Suspension
same,Dissolving Capability,[3]; [7],250 mg/mL
same,State of Solubility,[3]; [7],Suspension
same,Dissolving Capability,[3]; [8],50 mg/mL
same,State of Solubility,[3]; [8],Suspension
same,Dissolving Capability,[3]; [9],250 mg/mL
same,State of Solubility,[3]; [9],Suspension
same,Dissolving Capability,[3]; [10],50 mg/mL
same,State of Solubility,[3]; [10],Suspension
same,Dissolving Capability,"[3]; Isosorbid-dimethyl ether 98%, sonication 40 C.",250 mg/mL
same,State of Solubility,"[3]; Isosorbid-dimethyl ether 98%, sonication 40 C., at the concentration of the same line",Suspension
same,Dissolving Capability,[3]; [11],50 mg/mL
same,State of Solubility,[3]; [11],Suspension
same,Dissolving Capability,[3]; [12],250 mg/mL
same,State of Solubility,[3]; [12],Suspension
same,Dissolving Capability,"[3]; Oleyl alcohol, sonication RT",50 mg/mL
same,State of Solubility,"[3]; Oleyl alcohol, sonication RT",Suspension
same,Dissolving Capability,"[3]; Water, sonication 40 C.",50 mg/mL
same,State of Solubility,"[3]; Water, sonication 40 C.",Suspension
same,Dissolving Capability,"[3]; Water, sonication RT",25 mg/mL
same,State of Solubility,"[3]; Water, sonication RT",Suspension
same,bioavailability,[4],less than 5%
same,bioavailability,[5],below 1%
same,"abdominal pain, percentage of patients",[6]; [13],3.4%
same,"constipation, percentage of patients",[6]; [13],6.9%
same,"diarrhea, percentage of patients",[6]; [13],10.3%
same,"flatulence, percentage of patients",[6]; [13],19.0%
same,patients with adverse gastrointestinal side-effects,"[6]; type 2 diabetes patients, 13 week berberine treatment",34.5%
